Experimental data from the Kinase Knowledgebase extract (Sharma et al. 2016).

What follows are compounds tested against EGFR (human) (UniProt P00533).
Sequence of EGFR (human) (P00533 whole entry, looked up): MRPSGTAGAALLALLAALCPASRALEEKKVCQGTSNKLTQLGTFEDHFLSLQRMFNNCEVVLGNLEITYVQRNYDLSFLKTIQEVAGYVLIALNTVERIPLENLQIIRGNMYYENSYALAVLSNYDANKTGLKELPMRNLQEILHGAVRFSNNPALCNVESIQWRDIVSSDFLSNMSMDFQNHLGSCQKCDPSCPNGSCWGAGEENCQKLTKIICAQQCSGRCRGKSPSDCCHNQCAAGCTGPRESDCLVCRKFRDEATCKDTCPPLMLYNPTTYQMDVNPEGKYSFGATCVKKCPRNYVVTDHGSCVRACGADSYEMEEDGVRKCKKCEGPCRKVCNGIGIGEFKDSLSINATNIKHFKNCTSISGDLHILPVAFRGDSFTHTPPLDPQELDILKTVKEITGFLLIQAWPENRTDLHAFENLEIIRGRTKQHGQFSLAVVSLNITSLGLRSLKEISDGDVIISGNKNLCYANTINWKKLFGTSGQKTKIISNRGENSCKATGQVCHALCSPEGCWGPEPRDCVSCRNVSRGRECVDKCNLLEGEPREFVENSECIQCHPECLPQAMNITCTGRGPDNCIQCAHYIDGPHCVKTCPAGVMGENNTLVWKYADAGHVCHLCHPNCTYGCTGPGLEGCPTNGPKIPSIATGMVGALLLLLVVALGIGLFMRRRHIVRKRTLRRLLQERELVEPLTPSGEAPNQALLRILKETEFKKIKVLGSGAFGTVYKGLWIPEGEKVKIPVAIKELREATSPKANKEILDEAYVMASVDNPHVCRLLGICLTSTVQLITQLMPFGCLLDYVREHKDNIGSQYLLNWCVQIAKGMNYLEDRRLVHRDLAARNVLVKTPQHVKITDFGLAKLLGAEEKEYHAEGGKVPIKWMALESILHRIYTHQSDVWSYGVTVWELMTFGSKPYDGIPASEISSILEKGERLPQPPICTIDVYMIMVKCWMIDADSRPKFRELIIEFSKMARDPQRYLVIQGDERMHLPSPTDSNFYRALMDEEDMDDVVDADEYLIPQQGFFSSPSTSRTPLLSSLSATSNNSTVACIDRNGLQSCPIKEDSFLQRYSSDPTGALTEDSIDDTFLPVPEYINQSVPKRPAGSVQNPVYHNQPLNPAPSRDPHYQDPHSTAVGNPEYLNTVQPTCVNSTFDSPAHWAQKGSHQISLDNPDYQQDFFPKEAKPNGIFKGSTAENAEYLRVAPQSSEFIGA

Question: Which IC50 does the source give for C#Cc1cc(Nc2ncnc3cc(OC)c(OCCCCCCC(=O)NO)cc23)ccc1F here?
Answer: ≤ 100 nM

Question: With COc1cc2ncnc(N[C@H](C)c3ccc(Cl)cc3)c2cc1OCCCCCCC(=O)NO as the compound, how does the IC50 read?
Answer: 100 to 1000 nM

Question: Which IC50 does the source give for COc1ccc([C@@H](C)Nc2ncnc3cc(OC)c(OCCCCCCC(=O)NO)cc23)cc1 here?
Answer: ≥ 10000 nM

Question: How did the IC50 turn out when C#Cc1cccc(Nc2ncnc3ccc(OCCCC(=O)NO)cc23)c1 was run?
Answer: 100 to 1000 nM

Question: How did the IC50 turn out when COc1cc2ncnc(Nc3ccc(F)c(Cl)c3)c2cc1OCCCC(=O)NO was run?
Answer: ≤ 100 nM

Question: COCCOc1cc2ncnc(Nc3ccc(OCc4cccc(F)c4)c(Cl)c3)c2cc1OCCCCCCC(=O)NO was tested. Which IC50 did it give?
Answer: ≤ 100 nM

Question: C#Cc1cccc(Nc2ncnc3cc(OCCCCCCC(=O)NO)c(OC)cc23)c1 was tested. Which IC50 did it give?
Answer: ≤ 100 nM

Question: For COc1cc2ncnc(Nc3ccc(F)c(Cl)c3)c2cc1SCCCCCCC(=O)NO, which IC50 is on record?
Answer: ≤ 100 nM

Question: For COc1cc2ncnc(Nc3ccc(F)c(Cl)c3)c2cc1NC(=O)CCCC(=O)NO, which IC50 is on record?
Answer: ≤ 100 nM

Question: With COc1cc2ncnc(N[C@H](C)c3ccc(F)cc3)c2cc1OCCCCCCC(=O)NO as the compound, how does the IC50 read?
Answer: 100 to 1000 nM

Question: With COc1cc2ncnc(NCc3ccccc3)c2cc1OCCCCCCC(=O)NO as the compound, how does the IC50 read?
Answer: ≤ 100 nM

Question: How did the IC50 turn out when COc1cc2ncnc(Nc3ccc(F)c(Cl)c3)c2cc1OCCCCC(=O)NO was run?
Answer: ≤ 100 nM

Question: With C#Cc1cc(Nc2ncnc3cc(OC)c(OCCCCCCC(=O)NO)cc23)ccc1O as the compound, how does the IC50 read?
Answer: ≤ 100 nM

Question: C#Cc1cccc(Nc2ncnc3cc(OCCCCCCC(=O)NO)c(OCCOC)cc23)c1 was tested. Which IC50 did it give?
Answer: ≤ 100 nM

Question: Which IC50 does the source give for O=C(CCCCCCOc1ccc2ncnc(Nc3ccc(OCc4cccc(F)c4)c(Cl)c3)c2c1)NO here?
Answer: ≤ 100 nM

Question: C#Cc1cc(Nc2ncnc3cc(OCCOC)c(OCCCCCCC(=O)NO)cc23)ccc1F was tested. Which IC50 did it give?
Answer: ≤ 100 nM

Question: With O=C(CCCCCCCNCc1ccc(-c2ccc3ncnc(Nc4ccc(OCc5cccc(F)c5)c(Cl)c4)c3c2)o1)NO as the compound, how does the IC50 read?
Answer: ≤ 100 nM

Question: Which IC50 does the source give for COc1cc2ncnc(Nc3ccc(F)c(Cl)c3)c2cc1OCCC(=O)NO here?
Answer: ≤ 100 nM

Question: How did the IC50 turn out when C#Cc1cccc(Nc2ncnc3cc(OC)c(NC(=O)CCCCCCC(=O)NO)cc23)c1 was run?
Answer: ≤ 100 nM

Question: For C#Cc1cccc(Nc2ncnc3cc(OC)c(OCCCCCC(=O)NO)cc23)c1, which IC50 is on record?
Answer: ≤ 100 nM

Question: For COc1cc2ncnc(Nc3ccc(F)c(Cl)c3)c2cc1OCCCCCCN(O)C(N)=O, which IC50 is on record?
Answer: ≤ 100 nM

Question: With C#Cc1cccc(Nc2ncnc3cc(OCCOC)c(OCCCCCCC(=O)NO)cc23)c1 as the compound, how does the IC50 read?
Answer: ≤ 100 nM

Question: Which IC50 does the source give for C#Cc1cccc(Nc2ncnc3cc(O)c(OCCCCCCC(=O)NO)cc23)c1 here?
Answer: ≤ 100 nM

Question: Which IC50 does the source give for COCCOc1cc2c(Nc3ccc(F)c(Cl)c3)ncnc2cc1OCCCCCCC(=O)NO here?
Answer: ≤ 100 nM

Question: How did the IC50 turn out when COCCOc1cc2ncnc(Nc3ccc(F)c(Cl)c3)c2cc1NC(=O)CCCC(=O)NO was run?
Answer: ≤ 100 nM

Question: C#Cc1cccc(Nc2ncnc3cc(OC)c(OCCC(=O)NO)cc23)c1 was tested. Which IC50 did it give?
Answer: ≤ 100 nM

Question: With COc1cc2ncnc(Nc3ccc(F)c(Cl)c3)c2cc1OCCCCCC(=O)NO as the compound, how does the IC50 read?
Answer: ≤ 100 nM

Question: COc1cc2ncnc(Nc3ccc(F)c(Cl)c3)c2cc1OCCOc1ccc(C=CC(=O)NO)cc1 was tested. Which IC50 did it give?
Answer: ≤ 100 nM

Question: For C#Cc1cccc(Nc2ncnc3ccc(OCCCCC(=O)NO)cc23)c1, which IC50 is on record?
Answer: ≤ 100 nM

Question: Which IC50 does the source give for COc1cc2ncnc(Nc3ccc(F)c(Cl)c3)c2cc1SCCCCC(=O)NO here?
Answer: ≤ 100 nM

Question: For C#Cc1cccc(Nc2ncnc3cc(OC)c(NC(=O)CCCC(=O)NO)cc23)c1, which IC50 is on record?
Answer: ≤ 100 nM

Question: How did the IC50 turn out when COc1cc2ncnc(N[C@H](C)c3ccccc3)c2cc1OCCCCCC(=O)NO was run?
Answer: ≤ 100 nM

Question: Which IC50 does the source give for C#Cc1cccc(Nc2ncnc3cc(OC)c(OCC(=O)NO)cc23)c1 here?
Answer: ≤ 100 nM

Question: C#Cc1cccc(Nc2ncnc3cc(OC)c(OCCCC(=O)NO)cc23)c1 was tested. Which IC50 did it give?
Answer: ≤ 100 nM

Question: How did the IC50 turn out when COc1cc2ncnc(Nc3ccc(OCc4cccc(F)c4)c(Cl)c3)c2cc1OCCCCCCC(=O)NO was run?
Answer: ≤ 100 nM

Question: For COCCOc1cc2ncnc(Nc3ccc(F)c(Cl)c3)c2cc1OCCCCCCC(=O)NO, which IC50 is on record?
Answer: ≤ 100 nM

Question: Which IC50 does the source give for COc1cc2ncnc(NCc3ccc(F)c(Cl)c3)c2cc1OCCCCCCC(=O)NO here?
Answer: ≤ 100 nM

Question: COc1cc2ncnc(Nc3ccc(F)c(Cl)c3)c2cc1OCCOc1ccc(C(=O)NO)cc1 was tested. Which IC50 did it give?
Answer: ≤ 100 nM

Question: How did the IC50 turn out when O=C(CCCCOc1ccc2ncnc(Nc3ccc(F)c(Cl)c3)c2c1)NO was run?
Answer: ≤ 100 nM

Question: With C[C@@H](Nc1ncnc2ccc(OCCCCCC(=O)NO)cc12)c1ccccc1 as the compound, how does the IC50 read?
Answer: 100 to 1000 nM

Question: Which IC50 does the source give for COc1cc2ncnc(Nc3ccc(F)c(Cl)c3)c2cc1NC(=O)CCCCCCC(=O)NO here?
Answer: ≤ 100 nM

Question: COc1cc2ncnc(NCc3ccc(F)c(F)c3)c2cc1OCCCCCCC(=O)NO was tested. Which IC50 did it give?
Answer: 100 to 1000 nM

Question: COc1cc2ncnc(Nc3ccc(F)c(Cl)c3)c2cc1NC(=O)Nc1ccc(C(=O)NO)cc1 was tested. Which IC50 did it give?
Answer: ≤ 100 nM

Question: With COc1cc2ncnc(Nc3ccc(F)c(Cl)c3)c2cc1OCCCCCCC(=O)N(C)O as the compound, how does the IC50 read?
Answer: ≤ 100 nM

Question: Which IC50 does the source give for COc1cc2ncnc(Nc3ccc(F)c(Cl)c3)c2cc1OCCOc1ccc(CC(=O)NO)cc1 here?
Answer: ≤ 100 nM

Question: For C#Cc1cccc(Nc2ncnc3cc(OC)c(NC(=O)CCCCC(=O)NO)cc23)c1, which IC50 is on record?
Answer: ≤ 100 nM

Question: Which IC50 does the source give for O=C(CCCCCNCc1ccc(-c2ccc3ncnc(Nc4ccc(OCc5cccc(F)c5)c(Cl)c4)c3c2)o1)NO here?
Answer: ≤ 100 nM

Question: For C#Cc1cccc(Nc2ncnc3ccc(OCCCCCCC(=O)NO)cc23)c1, which IC50 is on record?
Answer: 100 to 1000 nM

Question: COc1cc2ncnc(NCc3cccc(Br)c3)c2cc1OCCCCCCC(=O)NO was tested. Which IC50 did it give?
Answer: 100 to 1000 nM

Question: How did the IC50 turn out when C#Cc1cccc(Nc2ncnc3ccc(OCC(=O)NO)cc23)c1 was run?
Answer: ≤ 100 nM

Question: For O=C(CCCCCOc1ccc2ncnc(Nc3ccc(F)c(Cl)c3)c2c1)NO, which IC50 is on record?
Answer: ≤ 100 nM

Question: COCCOc1cc2ncnc(Nc3ccc(F)c(Cl)c3)c2cc1NC(=O)CCCCCCC(=O)NO was tested. Which IC50 did it give?
Answer: ≤ 100 nM

Question: How did the IC50 turn out when O=C(CCCCCCOc1ccc2ncnc(Nc3ccc(F)c(Cl)c3)c2c1)NO was run?
Answer: ≤ 100 nM

Question: How did the IC50 turn out when C#Cc1cccc(Nc2ncnc3ccc(OCCCCCC(=O)NO)cc23)c1 was run?
Answer: 100 to 1000 nM

Question: With C[C@@H](Nc1ncnc2ccc(OCCCCCCC(=O)NO)cc12)c1ccccc1 as the compound, how does the IC50 read?
Answer: 100 to 1000 nM

Question: For Nc1cc(Br)ccc1NC(=O)COc1ccc2ncnc(Nc3ccc(F)c(Cl)c3)c2c1, which IC50 is on record?
Answer: 100 to 1000 nM

Question: With COc1cc2ncnc(Nc3ccc(F)c(Cl)c3)c2cc1OCC(=O)NO as the compound, how does the IC50 read?
Answer: ≤ 100 nM

Question: How did the IC50 turn out when O=C(COc1ccc2ncnc(Nc3ccc(F)c(Cl)c3)c2c1)NO was run?
Answer: ≤ 100 nM

Question: Which IC50 does the source give for COc1cc2ncnc(Nc3ccc(F)c(Cl)c3)c2cc1OCCCCCCC(=O)NO here?
Answer: ≤ 100 nM

Question: For COc1cc2ncnc(NCCc3ccccc3)c2cc1OCCCCCCC(=O)NO, which IC50 is on record?
Answer: 100 to 1000 nM

Question: For COc1cc2ncnc(Nc3ccc(F)c(Cl)c3)c2cc1CCCCCC(=O)NO, which IC50 is on record?
Answer: ≤ 100 nM

Question: For COCCOc1cc2ncnc(Nc3ccc(F)c(Cl)c3)c2cc1NC(=O)CCCCC(=O)NO, which IC50 is on record?
Answer: ≤ 100 nM

Question: With O=C(CCOc1ccc2ncnc(Nc3ccc(F)c(Cl)c3)c2c1)NO as the compound, how does the IC50 read?
Answer: ≤ 100 nM
